Tests used:
IL-6 = test: Inhibition of IL-6 secretion in LPS-stimulated PBMCs; type: cell-based; conditions: Homo sapiens, PBMC; PBMCs stimulated with LPS (50 pg/mL); read-out: EC50 for inhibiting IL-6
Experimental: (§1) Objective: Test 3-(methylsulfonyl)acrylonitrile for inhibition of cytokine secretion in peripheral blood mononuclear cells (PBMCs) stimulated with lipopolysaccharide (LPS).
(§2) Cytokines: IL-1β, IL-6, TNFα
(§3) Test Compound Dose Concentrations: 50, 10, 5, 1, 0.5, 0.1 μM
(§4) Cells negative control: Vehicle only/No LPS
(§5) Positive control: Dexamethasone (100 nM, n=2)
(§6) 1. Microtiter plates were seeded with 1×10^4 PBMCs/well in […], culture medium (RPMI 1640, 10% FBS, 1% Pen/Strep, 2 mM L-Alanyl-L-glutamine)
(§7) 2. The plates were incubated at 37° C. in 5% CO2 for 1 hour.
(§8) 3. 10 μL of test compound (at different concentrations), dexamethasone, and vehicle controls were added to appropriate wells, and the plates were incubated at 37° C. in 5% CO2 for 1 hour.
(§9) 4. 40 μL of LPS (50 pg/mL final) were added and the plates were incubated at 37° C. in 5% CO2 for 1 hour.
(§10) 5. The plates were centrifuged at 1000 rpm for 10 minutes and supernatants were collected.
(§11) 6. The supernatants were assayed for IL-1β, IL-6, TNFα levels using the Luminex Bead kit.
(§12) 7. EC50 values were determined.

[1] = tested on: arachidonic acid induced ear swelling; test: Topical arachidonic acid induced ear swelling model, oral administration; type: in vivo, mice; conditions: for % Inhibition: ear swelling at 60 minutes
Experimental: The test compound, dexamethasone (positive control), and vehicle were orally administered to mice and evaluated for anti-inflammatory activity in the topical arachidonic acid induced ear swelling model in mice. […] All animals were maintained in a controlled temperature (22-24° C.) and humidity (60%-70%) environment with 12-hour light/dark cycles for at least one week prior to use. Arachidonic acid (0.5 mg in 20 μL acetone) was applied topically onto the anterior and posterior surfaces of the right ear of test animals to induce inflammation. […] At 60 minutes after arachidonic acid induction of ear edema, the thickness of the right ear and the left ear was measured and the difference calculated as an indication of the inflammation in the right ear.

TNFα = test: Inhibition of TNFα secretion in LPS-stimulated PBMCs; type: cell-based; conditions: Homo sapiens, PBMC; PBMCs stimulated with LPS (50 pg/mL); read-out: EC50 for inhibiting TNFα
Experimental: as §1, §2, §3, §4, §5, §6, §7, §8, §9, §10, §11, §12

tail-flick latency = test: Tail-flick latency (52° C. water bath), potentiation of morphine analgesia; type: in vivo, mice
Experimental: The response of the mice to nociceptive stimuli was evaluated using the time of tail-flick or tail-flick latency from 52° C. water bath. Briefly, the animal was placed in a restrainer with its tail outside. The tail (distal ⅓rd) was immersed into 52° C. water and the time for the mouse to flick its tail out of the water was recorded. The maximum exposure permitted was 10 seconds. If there was no response within 10 seconds, the animal tail was removed from the water to prevent damage to the tail. Baseline data were collected using the tail flick procedure 2 times over 1 hour, prior to any drug administration. The last baseline response data point was used as basal tail flick latency.
3-(methylsulfonyl)acrylonitrile was dissolved in 0.5% methyl cellulose (MC) to 2 mg/mL, and orally administered to mice (n=5) in a volume of 10 ml/kg (20 mg/kg), 1 hour prior to morphine dosing. One mL plastic disposal tuberculin syringes (Becton Dickinson & Co. Franklin Lakes, N.J.) and 20 gauge×38 mm flexible plastic feeding tubes (Instech Laboratories, Plymouth Meeting, Pa.) were used for oral drug administration. Morphine at 5 mg/kg in saline was subcutaneously administered to mice at time zero.
Tail flick measurements were made at 5, 15, 30, 45, 60, and 75 minutes post-morphine administration.
Statistical evaluation was done using an appropriate analysis of variance (ANOVA) using tail flick latencies. […] Analysis with p-values <0.05 is considered significant.

IL-1β = test: Inhibition of IL-1β secretion in LPS-stimulated PBMCs; type: cell-based; conditions: Homo sapiens, PBMC; PBMCs stimulated with LPS (50 pg/mL); read-out: EC50 for inhibiting IL-1β
Experimental: as §1, §2, §3, §4, §5, §6, §7, §8, §9, §10, §11, §12

CS(=O)(=O)C=CC#N [3-(methylsulfonyl)acrylonitrile]
EC50 (IL-6): 190 nM
% Inhibition ([1]; 0.1 mg/kg oral gavage 1 hour before arachidonic acid): 11%
% Inhibition ([1]; 0.3 mg/kg oral gavage 1 hour before arachidonic acid): 11%
% Inhibition ([1]; 1 mg/kg oral gavage 1 hour before arachidonic acid): 9%
% Inhibition ([1]; 3 mg/kg oral gavage 1 hour before arachidonic acid): 13%
% Inhibition ([1]; 10 mg/kg oral gavage 1 hour before arachidonic acid): 26%
inhibition in arachidonic acid induced ear swelling (in words) ([1]; 10 mg/kg oral, at 60 minutes, vs vehicle, t-test p<0.05): significant inhibition
EC50 (TNFα): 300 nM
analgesic effect (tail flick), morphine plus compound (tail-flick latency; 20 mg/kg oral 1 hour before morphine 5 mg/kg s.c., 75 minutes post dosing): strong analgesic effects
latency of tail flick, morphine plus compound vs morphine alone (tail-flick latency; 20 mg/kg oral 1 hour before morphine 5 mg/kg s.c., measured at 30, 60, and 75 minutes post morphine dosing): increases the latency of tail flick significantly
EC50 (IL-1β): 160 nM

C[C@@H]1C[C@H]2[C@@H]3CCC4=CC(=O)C=C[C@]4(C)[C@@]3(F)[C@@H](O)C[C@]2(C)[C@@]1(O)C(=O)CO [Dexamethasone, reference compound]
% Inhibition ([1]; 0.3 mg/kg oral gavage 3 hour before arachidonic acid): 39%

CN1CC[C@]23c4c5ccc(O)c4O[C@H]2[C@@H](O)C=C[C@H]3[C@H]1C5 [morphine, reference compound]
analgesic effect (tail flick), morphine alone (tail-flick latency; morphine 5 mg/kg s.c., 75 minutes post dosing): no effect

— patent US9763909B2, “Methods for treating inflammation and pain” (Olatec Therapeutics LLC, priority 2012, dated 2017)
